Measured values as given in patent US11091488B2 (MISSION THERAPEUTICS LIMITED, priority 2015, dated 2021).

Target: USP30 (Homo sapiens (Human), UniProt Q70CQ3)
Experiment: USP30 biochemical IC50 assay
Settings: read-out: IC50 range; fluorescence polarisation, TAMRA labelled peptide linked to ubiquitin; 30 min pre-incubation, read after 2 hr
Method: USP30 Biochemical IC50 Assay
Dilution plates were prepared at 21 times the final concentration (2100 μM for a final concentration of 100 μM) in 50% DMSO in a 96-well polypropylene V-bottom plate (Greiner #651201). A typical 8-point dilution series to be 100, 30, 10, 3, 1, 0.3, 0.1, 0.03 μM final. Reactions were performed in duplicate in black 384 well plates (small volume, Greiner 784076) in a final reaction volume of 21 μl. Either 1 μl of 50% DMSO or diluted compound was added to the plate. USP30 was diluted in reaction buffer (40 mM Tris, pH 7.5, 0.005% Tween 20, 0.5 mg/ml BSA, 5 mM—beta-mercaptoethanol) to the equivalent of 0.05 μl/well and 10 μl of diluted USP30 was added to the compound. Enzyme and compound were incubated for 30 min at room temp. Reactions were initiated by the addition of 50 nM of TAMRA labelled peptide linked to ubiquitin via an iso-peptide bond as fluorescence polarisation substrate. Reactions were read immediately after addition of substrate and following a 2 hr incubation at room temperature. Readings were performed on a Pherastar Plus (BMG Labtech). λ Excitation 540 nm; λ Emission 590 nm.

Chain of USP30 (Q70CQ3 57-517): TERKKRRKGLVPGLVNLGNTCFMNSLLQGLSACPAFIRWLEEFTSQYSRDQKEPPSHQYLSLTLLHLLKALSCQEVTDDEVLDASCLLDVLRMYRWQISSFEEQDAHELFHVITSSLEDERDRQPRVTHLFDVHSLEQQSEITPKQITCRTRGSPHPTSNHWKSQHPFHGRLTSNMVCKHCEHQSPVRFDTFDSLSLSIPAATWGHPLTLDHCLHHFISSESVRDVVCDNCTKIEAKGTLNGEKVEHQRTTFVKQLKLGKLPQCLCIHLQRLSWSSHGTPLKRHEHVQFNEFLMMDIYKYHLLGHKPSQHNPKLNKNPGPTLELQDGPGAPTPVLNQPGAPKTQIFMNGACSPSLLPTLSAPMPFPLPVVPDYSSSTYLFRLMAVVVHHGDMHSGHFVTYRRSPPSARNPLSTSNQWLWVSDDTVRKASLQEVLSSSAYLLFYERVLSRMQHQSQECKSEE

| IC50 [nM] | Structure (SMILES) |
| --- | --- |
| < 100 | COc1ccccc1-c1cccc(N2CCN([C@@H]3CCN(C#N)C3)S2(=O)=O)c1 [Example 10, (R)-3-(5-(2′-methoxy-[1,1′-biphenyl]-3-yl)-1,1-dioxido-1,2,5-thiadiazolidin-2-yl)pyrrolidine-1-carbonitrile] |
| 100 to 1000 | C[C@H]1CN(C#N)C[C@@H]1N1CCN(c2cccc(N3CCOCC3)c2)S1(=O)=O [Example 41, (3S,4R)-3-methyl-4-(5-(3-morpholinophenyl)-1,1-dioxido-1,2,5-thiadiazolidin-2-yl)pyrrolidine-1-carbonitrile] |
| 100 to 1000 | N#CN1CCC(NS(=O)(=O)Nc2ccc(-c3ccccc3)cc2)C1 (centres unmarked) [Example 58, N-biphenyl-4-yl-N′-(1-cyanopyrrolidin-3-yl)sulfuric diamide] |
| 100 to 1000 | N#CN1CC[C@@H](NS(=O)(=O)N2CCCn3nc(-c4ccccc4)cc32)C1 [Example 30, (R)—N-(1-cyanopyrrolidin-3-yl)-2-phenyl-6,7-dihydropyrazolo[1,5-a]pyrimidine-4(5H)-sulfonamide] |
| 100 to 1000 | CN1c2cc(-c3ccccc3)ccc2CN([C@@H]2CCN(C#N)C2)S1(=O)=O [Example 73, (R)-3-(1-methyl-2,2-dioxido-7-phenyl-1,4-dihydro-3H-benzo[c][1,2,6]thiadiazin-3-yl)pyrrolidine-1-carbonitrile] |
| 1000 to 10000 | N#CN1CC[C@@H](N2CCCN(c3ccc4nc(C(F)(F)F)[nH]c4c3)S2(=O)=O)C1 [Example 46, (R)-3-(1,1-dioxido-6-(2-(trifluoromethyl)-1H-benzo[d]imidazol-6-yl)-1,2,6-thiadiazinan-2-yl)pyrrolidine-1-carbonitrile] |
| < 100 | N#CN1CC[C@@H](N2CCN(c3ccc4c(c3)NC(=O)CO4)S2(=O)=O)C1 [Example 5, (R)-3-(1,1-dioxido-5-(3-oxo-3,4-dihydro-2H-benzo[b][1,4]oxazin-6-yl)-1,2,5-thiadiazolidin-2-yl)pyrrolidine-1-carbonitrile] |
| 1000 to 10000 | N#CN1CCC(NS(=O)(=O)N2CCc3ccccc32)C1 (centres unmarked) [Example 61, N-(1-cyanopyrrolidin-3-yl)indoline-1-sulfonamide] |
| < 100 | COc1ccc(N2CCN([C@@H]3CCN(C#N)C3)S2(=O)=O)cc1-c1ccccc1 [Example 42, (R)-3-(5-(6-methoxy-[1,1′-biphenyl]-3-yl)-1,1-dioxido-1,2,5-thiadiazolidin-2-yl)pyrrolidine-1-carbonitrile] |
| 1000 to 10000 | N#CN1CC[C@@H](N2CCCN(c3cccc(N4CCOCC4)c3)S2(=O)=O)C1 [Example 25, (R)-3-(6-(3-morpholinophenyl)-1,1-dioxido-1,2,6-thiadiazinan-2-yl)pyrrolidine-1-carbonitrile] |
| < 100 | C[C@H]1CN(C#N)C[C@@H]1N1CCN(c2ccc(-c3ccccc3)cc2)S1(=O)=O [Example 39, (3R,4S)-3-(5-([1,1′-biphenyl]-4-yl)-1,1-dioxido-1,2,5-thiadiazolidin-2-yl)-4-methylpyrrolidine-1-carbonitrile] |
| 100 to 1000 | N#CN1CC[C@H](N2CCN(c3cccc(-c4ccno4)c3)S2(=O)=O)C1 [Example 1, (S)-3-(5-(3-(isoxazol-5-yl)phenyl)-1,1-dioxido-1,2,5-thiadiazolidin-2-yl)pyrrolidine-1-carbonitrile] |
| 1000 to 10000 | N#CN1CC[C@@H](N2Cc3cc(-c4ccccc4)ccc3NS2(=O)=O)C1 [Example 75, (R)-3-(2,2-dioxido-6-phenyl-1,4-dihydro-3H-benzo[c][1,2,6]thiadiazin-3-yl)pyrrolidine-1-carbonitrile] |
| 100 to 1000 | N#CN1CC[C@@H](N2CCN(c3ccc4c(c3)OCC(=O)N4)S2(=O)=O)C1 [Example 3, (R)-3-(1,1-dioxido-5-(3-oxo-3,4-dihydro-2H-benzo[b][1,4]oxazin-7-yl)-1,2,5-thiadiazolidin-2-yl)pyrrolidine-1-carbonitrile] |
| < 100 | N#CN1CC[C@@H](N2CCN(c3cc(-c4ccccc4)no3)S2(=O)=O)C1 [Example 26, (R)-3-(1,1-dioxido-5-(3-phenylisoxazol-5-yl)-1,2,5-thiadiazolidin-2-yl)pyrrolidine-1-carbonitrile] |
| < 100 | N#CN1CC[C@H](N2CCN(c3ccc(-c4ccncc4)cc3)S2(=O)=O)C1 [Example 32, (S)-3-(1,1-dioxido-5-(4-(pyridin-4-yl)phenyl)-1,2,5-thiadiazolidin-2-yl)pyrrolidine-1-carbonitrile] |
| 100 to 1000 | N#CN1CCC(N2CCN(c3ccccc3)S2(=O)=O)C1 (centres unmarked) [Example 37, 3-(1,1-dioxido-5-phenyl-1,2,5-thiadiazolidin-2-yl)pyrrolidine-1-carbonitrile] |

| IC50 [nM] | Structure (SMILES) |
| --- | --- |
| 100 to 1000 | N#CN1CC[C@@H](N2Cc3ccc(-c4ccccc4)cc3NS2(=O)=O)C1 [Example 72, (R)-3-(2,2-dioxido-7-phenyl-1,4-dihydro-3H-benzo[c][1,2,6]thiadiazin-3-yl)pyrrolidine-1-carbonitrile] |
| 100 to 1000 | CN1CCN(c2cc(N3CCN([C@@H]4CCN(C#N)C4)S3(=O)=O)ccn2)CC1 [Example 52, (R)-3-(5-(2-(4-methylpiperazin-1-yl)pyridin-4-yl)-1,1-dioxido-1,2,5-thiadiazolidin-2-yl)pyrrolidine-1-carbonitrile] |
| 100 to 1000 | N#CN1CC[C@@H](N2CCCN(c3cccc(-c4ccccc4)c3)S2(=O)=O)C1 [Example 14, (R)-3-(6-([1,1′-biphenyl]-3-yl)-1,1-dioxido-1,2,6-thiadiazinan-2-yl)pyrrolidine-1-carbonitrile] |
| < 100 | COc1cccc(-c2cccc(N3CCN([C@@H]4CCN(C#N)C4)S3(=O)=O)c2)c1 [Example 16, (R)-3-(5-(3′-methoxy-[1,1′-biphenyl]-3-yl)-1,1-dioxido-1,2,5-thiadiazolidin-2-yl)pyrrolidine-1-carbonitrile] |
| 1000 to 10000 | N#CN1CC[C@H](N2CCN(c3ccccc3)S2(=O)=O)C1 [Example 31, (S)-3-(1,1-dioxido-5-phenyl-1,2,5-thiadiazolidin-2-yl)pyrrolidine-1-carbonitrile] |
| 100 to 1000 | N#CN1CC[C@@H](NS(=O)(=O)N2CCc3cc(-c4ccccc4)ccc32)C1 [Example 63, (R)—N-(1-cyanopyrrolidin-3-yl)-5-phenylindoline-1-sulfonamide] |
| 100 to 1000 | N#CN1CC[C@H](N2CCN(c3cccc(-c4ccccn4)c3)S2(=O)=O)C1 [Example 47, (S)-3-(1,1-dioxido-5-(3-(pyridin-2-yl)phenyl)-1,2,5-thiadiazolidin-2-yl)pyrrolidine-1-carbonitrile] |
| 100 to 1000 | N#CN1CC[C@@H](N2CCN(c3ccc4c(c3)N(CCO)C(=O)CO4)S2(=O)=O)C1 [Example 6, (R)-3-(5-(4-(2-hydroxyethyl)-3-oxo-3,4-dihydro-2H-benzo[b][1,4]oxazin-6-yl)-1,1-dioxido-1,2,5-thiadiazolidin-2-yl)pyrrolidine-1-carbonitrile] |
| 1000 to 10000 | N#CN1CC[C@@H](NS(=O)(=O)N2CCc3ccccc3C2)C1 [Example 62, (R)—N-(1-cyanopyrrolidin-3-yl)-3,4-dihydroisoquinoline-2(1H)-sulfonamide] |
| < 100 | N#CN1CC[C@@H](N2CCN(c3cccc(-c4ccncc4)c3)S2(=O)=O)C1 [Example 19, (R)-3-(1,1-dioxido-5-(3-(pyridin-4-yl)phenyl)-1,2,5-thiadiazolidin-2-yl)pyrrolidine-1-carbonitrile] |
| 100 to 1000 | Cn1cc(-c2ccc3c(c2)NS(=O)(=O)N([C@@H]2CCN(C#N)C2)C3)cn1 [Example 71, (R)-3-(7-(1-methyl-1H-pyrazol-4-yl)-2,2-dioxido-1,4-dihydro-3H-benzo[c][1,2,6]thiadiazin-3-yl)pyrrolidine-1-carbonitrile] |
| 100 to 1000 | COCCN(CCOC)c1cc(N2CCN([C@@H]3CCN(C#N)C3)S2(=O)=O)ccn1 [Example 56, (R)-3-(5-(2-(bis(2-methoxyethyl)amino)pyridin-4-yl)-1,1-dioxido-1,2,5-thiadiazolidin-2-yl)pyrrolidine-1-carbonitrile] |
| 100 to 1000 | COC1CN(c2cc(N3CCN([C@@H]4CCN(C#N)C4)S3(=O)=O)ccn2)C1 [Example 55, (R)-3-(5-(2-(3-methoxyazetidin-1-yl)pyridin-4-yl)-1,1-dioxido-1,2,5-thiadiazolidin-2-yl)pyrrolidine-1-carbonitrile] |
| 100 to 1000 | N#CN1CCC(NS(=O)(=O)N2CCN(c3ccccc3)CC2)C1 (centres unmarked) [Example 60, N-(1-cyanopyrrolidin-3-yl)-4-phenylpiperazine-1-sulfonamide] |
| 1000 to 10000 | N#CN1CC[C@@H](N2c3ccccc3N(Cc3cccnc3)S2(=O)=O)C1 [Example 68, (R)-3-(2,2-dioxido-3-(pyridin-3-ylmethyl)benzo[c][1,2,5]thiadiazol-1(3H)-yl)pyrrolidine-1-carbonitrile] |
| 100 to 1000 | N#CN1CC[C@@H](N2CCN(c3ccc4nc(C(F)(F)F)[nH]c4c3)S2(=O)=O)C1 [Example 44, (R)-3-(1,1-dioxido-5-(2-(trifluoromethyl)-1H-benzo[d]imidazol-5-yl)-1,2,5-thiadiazolidin-2-yl)pyrrolidine-1-carbonitrile] |

| Structure (SMILES) | IC50 [nM] |
| --- | --- |
| Cn1cc(-c2cccc(N3CCN([C@@H]4CCN(C#N)C4)S3(=O)=O)c2)cn1 [Example 20, (R)-3-(5-(3-(1-methyl-1H-pyrazol-4-yl)phenyl)-1,1-dioxido-1,2,5-thiadiazolidin-2-yl)pyrrolidine-1-corbonitrile] | < 100 |
| N#CN1CC[C@@H](N2CCN(C3CCN(c4ccccn4)C3)S2(=O)=O)C1 (stereo partly drawn) [Example 9, (3R)-3-(1,1-dioxido-5-(1-(pyridin-2-yl)pyrrolidin-3-yl)-1,2,5-thiadiazolidin-2-yl)pyrrolidine-1-carbonitrile] | 100 to 1000 |
| COc1ccccc1-c1ccc(N2CCN([C@@H]3CCN(C#N)C3)S2(=O)=O)cc1 [Example 17, (R)-3-(5-(2′-methoxy-[1,1′-biphenyl]-4-yl)-1,1-dioxido-1,2,5-thiadiazolidin-2-yl)pyrrolidine-l-carbonitrile] | < 100 |
| N#CN1CC[C@H](N2CCN(c3ccc(-c4ccccc4)cc3)S2(=O)=O)C1 [Example 34] | < 100 |
| N#CN1CCC(N2CCCN(c3ccccc3)S2(=O)=O)C1 (centres unmarked) [Example 38, 3-(1,1-dioxido-6-phenyl-1,2,6-thiadiazinan-2-yl)pyrrolidine-1-carbonitrile] | 100 to 1000 |
